Assay results published in the CombiSolv-Exp solvation set (Vermeire and Green 2021).
One block for each compound: values may come before it.

Experiment: solvent given as SMILES

SMILES: CC(C)CC(C)(C)C
solvation free energy, 298 K (in C1CCOC1): -4.65 kcal/mol
solvation free energy, 298 K (in CC1CCS(=O)(=O)C1): -2.59 kcal/mol
solvation free energy, 298 K (in CC#N): -3.11 kcal/mol
solvation free energy, 298 K (in CC(C)(C)O): -3.6 kcal/mol
solvation free energy, 298 K (in CC(C)O): -3.68 kcal/mol
solvation free energy, 298 K (in CC(C)OC(C)C): -4.57 kcal/mol
solvation free energy, 298 K (in CCC(C)=O): -4.05 kcal/mol
solvation free energy, 298 K (in CCCCCCCC): -4.53 kcal/mol
solvation free energy, 298 K (in CCCCCCCCCCCCCCCC): -4.26 kcal/mol
solvation free energy, 298 K (in CCCCCCCCCCO): -3.9 kcal/mol
solvation free energy, 298 K (in CCCCCCO): -4.07 kcal/mol
solvation free energy, 298 K (in CCCCCO): -3.89 kcal/mol
solvation free energy, 298 K (in CCCCCl): -4.57 kcal/mol
solvation free energy, 298 K (in CCCO): -3.67 kcal/mol
solvation free energy, 298 K (in CCO): -3.84 kcal/mol
solvation free energy, 298 K (in CN1CCCC1=O): -3.12 kcal/mol
solvation free energy, 298 K (in CN(C)C=O): -3.18 kcal/mol
solvation free energy, 298 K (in COC(C)(C)C): -4.65 kcal/mol
solvation free energy, 298 K (in N#CCCOCCC#N): -1.86 kcal/mol
solvation free energy, 298 K (in O): 2.92 kcal/mol
solvation free energy, 298 K (in O=CN1CCOCC1): -2.44 kcal/mol
solvation free energy, 298 K (in OCCO): -1.05 kcal/mol
solvation free energy, 298 K (in OCCOCCO): -1.78 kcal/mol
solvation free energy, 298 K (in OCCOCCOCCO): -1.88 kcal/mol
solvation free energy, 298 K (in OCCS): -2.36 kcal/mol

solvation free energy, 298 K (in O): -4.09 kcal/mol
SMILES: CCCCN(CCCC)CCCC

SMILES: CC(C)[N+](=O)[O-]
solvation free energy, 298 K (in CCCCCCC): -3.81 kcal/mol
solvation free energy, 298 K (in ClC(Cl)(Cl)Cl): -4.57 kcal/mol
solvation free energy, 298 K (in O): -3.13 kcal/mol
solvation free energy, 298 K (in c1ccccc1): -5.07 kcal/mol

solvation free energy, 298 K (in CCCCCCC): -5.51 kcal/mol
solvation free energy, 298 K (in O): -4 kcal/mol
SMILES: CCCCCCN

solvation free energy, 298 K (in O): -3.6 kcal/mol
SMILES: CC(=O)OCC1=CCC2CC1C2(C)C (stereo not drawn)

solvation free energy, 298 K (in O): -1.91 kcal/mol
SMILES: CCCCCCCCCC(=O)OC

SMILES: ClC(Cl)=C(c1ccc(Cl)cc1)c1ccc(Cl)cc1
solvation free energy, 298 K (in CCCCCCCCC=CCCCCCCCC(=O)OCC(COC(=O)CCCCCCCC=CCCCCCCCC)OC(=O)CCCCCCCC=CCCCCCCCC): -12.8 kcal/mol
solvation free energy, 298 K (in CCCCCCCCO): -13.2 kcal/mol
solvation free energy, 298 K (in O): -3.78 kcal/mol

SMILES: CN1C(=O)C(O)N=C(c2ccccc2)c2cc(Cl)ccc21 (stereo not drawn)
solvation free energy, 298 K (in CC(C)O): -18.1 kcal/mol
solvation free energy, 298 K (in CCCCCCO): -18.6 kcal/mol
solvation free energy, 298 K (in CCCCCO): -18.5 kcal/mol
solvation free energy, 298 K (in CCCCO): -18.5 kcal/mol
solvation free energy, 298 K (in CCCO): -18.5 kcal/mol
solvation free energy, 298 K (in CCO): -18.6 kcal/mol
solvation free energy, 298 K (in CN(C)C=O): -20 kcal/mol
solvation free energy, 298 K (in CO): -19.1 kcal/mol
solvation free energy, 298 K (in O): -15.2 kcal/mol
solvation free energy, 298 K (in O=C1CCCCC1): -19.6 kcal/mol

solvation free energy, 298 K (in O): -6.67 kcal/mol
SMILES: CCCCCCCOC(=O)c1ccccc1C(=O)OCCCCCC

SMILES: [2H][2H]
solvation free energy, 298 K (in Brc1ccccc1): 1.76 kcal/mol
solvation free energy, 298 K (in C1CCOC1): 1.47 kcal/mol
solvation free energy, 298 K (in C1COCCO1): 1.72 kcal/mol
solvation free energy, 298 K (in CC(C)(C)O): 1.46 kcal/mol
solvation free energy, 298 K (in CC(C)CC(C)(C)C): 1.27 kcal/mol
solvation free energy, 298 K (in CC(C)CO): 1.53 kcal/mol
solvation free energy, 298 K (in CCC(C)O): 1.54 kcal/mol
solvation free energy, 298 K (in CCCCCCC): 1.27 kcal/mol
solvation free energy, 298 K (in CCCCCCCC): 1.34 kcal/mol
solvation free energy, 298 K (in CCCCO): 1.53 kcal/mol
solvation free energy, 298 K (in Clc1ccccc1): 1.65 kcal/mol
solvation free energy, 298 K (in O): 2.36 kcal/mol
solvation free energy, 298 K (in O=C1CCCC1): 1.7 kcal/mol
solvation free energy, 298 K (in O=C1CCCCC1): 1.73 kcal/mol

solvation free energy, 298 K (in O): -4.33 kcal/mol
SMILES: CCc1ccccn1
